Source: the supplement of paper PMC8149375

Assays:
Conditions in all cases: treatment: drug + dasatinib (fixed dose, not stated); 5 days
ACHN [1] = test: minimum viability across doses, drug + dasatinib, relative to DMSO (fraction); higher = less growth inhibition
Method: (§1)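 Primary HTS combination arm: 8 RCC cell lines treated with 8 doses (up to 10 uM) of each library drug plus a fixed dose of dasatinib (dose not stated) for 5 days; viability read by CellTiter-Glo and normalised to DMSO. GI50 was fitted with XLfit, AUC is the area under the dose-response curve, and minimum viability is the lowest fraction of DMSO viability across doses.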

CAKI-1 [2] = test: as above
Method: as §1

UO-31 [3] = test: as above
Method: as §1

769-P [4] = test: as above
Method: as §1

786-O [5] = test: as above
Method: as §1

A498 [6] = test: as above
Method: as §1

SN12C [7] = test: as above
Method: as §1

TK-10 [8] = test: as above
Method: as §1

ACHN [9] = test: GI50 of drug in presence of dasatinib; higher = less potent
Method: as §1

CAKI-1 [10] = test: as above
Method: as §1

UO-31 [11] = test: as above
Method: as §1

786-O [12] = test: as above
Method: as §1

A498 [13] = test: as above
Method: as §1

SN12C [14] = test: as above
Method: as §1

TK-10 [15] = test: as above
Method: as §1

ACHN [16] = test: AUC of dose-response viability curve, drug + dasatinib, normalised to DMSO (arbitrary (AUC of normalised viability)); higher = less growth inhibition
Method: as §1

CAKI-1 [17] = test: as above
Method: as §1

UO-31 [18] = test: as above
Method: as §1

769-P [19] = test: as above
Method: as §1

786-O [20] = test: as above
Method: as §1

A498 [21] = test: as above
Method: as §1

SN12C [22] = test: as above
Method: as §1

TK-10 [23] = test: as above
Method: as §1

769-P [24] = test: GI50 of drug in presence of dasatinib; higher = less potent
Method: as §1

Row | SMILES | minimum viability across doses (ACHN [1]) | minimum viability across doses (CAKI-1 [2]) | minimum viability across doses (UO-31 [3]) | minimum viability across doses (769-P [4]) | minimum viability across doses (786-O [5]) | minimum viability across doses (A498 [6]) | minimum viability across doses (SN12C [7]) | minimum viability across doses (TK-10 [8]) | GI50 of drug (ACHN [9]) | GI50 of drug (CAKI-1 [10]) | GI50 of drug (UO-31 [11]) | GI50 of drug (786-O [12]) | GI50 of drug (A498 [13]) | GI50 of drug (SN12C [14]) | GI50 of drug (TK-10 [15]) | AUC of dose-response viability curve (ACHN [16]) | AUC of dose-response viability curve (CAKI-1 [17]) | AUC of dose-response viability curve (UO-31 [18]) | AUC of dose-response viability curve (769-P [19]) | AUC of dose-response viability curve (786-O [20]) | AUC of dose-response viability curve (A498 [21]) | AUC of dose-response viability curve (SN12C [22]) | AUC of dose-response viability curve (TK-10 [23]) | GI50 of drug (769-P [24])
1 | COc1cc2ncnc(Nc3ccc(F)c(Cl)c3)c2cc1OCCCN1CCOCC1 [Gefitinib (Iressa)] + Cc1nc(Nc2ncc(C(=O)Nc3c(C)cccc3Cl)s2)cc(N2CCN(CCO)CC2)n1 [dasatinib] | 0.187 | 0.169 | 0.3 | 0.177 | 0.56 | 0.808 | 0.588 | 0.267 | 85.7 nM | 1730 nM | 6180 nM | > 10000 nM | > 10000 nM | > 10000 nM | 1070 nM | 1.56 | 2.08 | 2.9 | 1.72 | 2.56 | 3.49 | 2.49 | 2.22 | 
2 | Cc1ccc(NC(=O)c2ccc(CN3CCN(C)CC3)cc2)cc1Nc1nccc(-c2cccnc2)n1 [Imatinib (Gleevec)] + Cc1nc(Nc2ncc(C(=O)Nc3c(C)cccc3Cl)s2)cc(N2CCN(CCO)CC2)n1 [dasatinib] | 0.523 | 0.491 | 0.883 | 0.586 | 0.336 | 0.817 | 0.68 | 0.624 | > 10000 nM | 8890 nM | > 10000 nM |  | > 10000 nM | > 10000 nM | > 10000 nM | 2.06 | 2.22 | 3.84 | 2.43 | 1.67 | 3.24 | 2.55 | 2.45 | > 10000 nM
3 | Cl.Cl.NC1(c2ccc(-c3nc4ccn5c(=O)[nH]nc5c4cc3-c3ccccc3)cc2)CCC1 [MK-2206 dihydrochloride] + Cc1nc(Nc2ncc(C(=O)Nc3c(C)cccc3Cl)s2)cc(N2CCN(CCO)CC2)n1 [dasatinib] | 0.202 | 0.102 | 0.0262 | 0.234 | 0.224 | 0.755 | 0.551 | 0.263 | 24.1 nM | 111 nM | 1740 nM | 2410 nM | > 10000 nM | > 10000 nM | 1110 nM | 1.45 | 1.69 | 2.61 | 2.05 | 2.02 | 2.94 | 2.18 | 2.1 | 
4 | Cc1cn(-c2cc(NC(=O)c3ccc(C)c(Nc4nccc(-c5cccnc5)n4)c3)cc(C(F)(F)F)c2)cn1 [Nilotinib (AMN-107)] + Cc1nc(Nc2ncc(C(=O)Nc3c(C)cccc3Cl)s2)cc(N2CCN(CCO)CC2)n1 [dasatinib] | 0.461 | 0.491 | 0.262 | 0.331 | 0.717 | 0.811 | 0.687 | 0.524 | 2890 nM | 7790 nM | 4880 nM | > 10000 nM | > 10000 nM | > 10000 nM | > 10000 nM | 2 | 2.38 | 3.2 | 1.98 | 2.77 | 3.37 | 2.55 | 2.53 | 
5 | CNC(=O)c1cc(Oc2ccc(NC(=O)Nc3ccc(Cl)c(C(F)(F)F)c3)c(F)c2)ccn1 [Regorafenib (BAY 73-4506)] + Cc1nc(Nc2ncc(C(=O)Nc3c(C)cccc3Cl)s2)cc(N2CCN(CCO)CC2)n1 [dasatinib] | 0.153 | 0.125 | 0.122 | 0.37 | 0.471 | 0.415 | 0.434 | 0.415 | 3320 nM | 2980 nM | 4410 nM |  | 2670 nM | 7180 nM | 5850 nM | 2.05 | 2.24 | 2.77 | 2.3 | 2.26 | 3.1 | 2.47 | 2.45 | 4040 nM
6 | CC(C)(O)CC(=O)NCCn1ccc2ncnc(Nc3ccc(Oc4cccc(C(F)(F)F)c4)c(Cl)c3)c21 [TAK-285] + Cc1nc(Nc2ncc(C(=O)Nc3c(C)cccc3Cl)s2)cc(N2CCN(CCO)CC2)n1 [dasatinib] | 0.172 | 0.311 | 0.224 | 0.22 | 0.338 | 0.83 | 0.556 | 0.346 | 12.7 nM | 2350 nM | 6240 nM |  | > 10000 nM | > 10000 nM | 568 nM | 1.28 | 2.15 | 3.97 | 2.18 | 1.8 | 3.25 | 2.44 | 1.99 | 1700 nM
7 | C=CC(=O)Nc1cccc(Oc2nc(Nc3ccc(N4CCN(C)CC4)cc3OC)ncc2Cl)c1 [WZ4002] + Cc1nc(Nc2ncc(C(=O)Nc3c(C)cccc3Cl)s2)cc(N2CCN(CCO)CC2)n1 [dasatinib] | 0.0147 | 0.145 | 0.0152 | 0.2 | 0.405 | 0.459 | 0.0353 | 0.0404 | 74.8 nM | 1180 nM | 1340 nM | 2490 nM | 9590 nM | 2420 nM | 617 nM | 1.37 | 1.87 | 2.67 | 2.02 | 2.22 | 3.2 | 2.29 | 1.97 | 
